The source of these data is patent publication US10633386B2, “BET protein degraders” (THE REGENTS OF THE UNIVERSITY OF MICHIGAN, priority 2016, dated 2020).

Experiment [1] relates to TNBC cell lines. The experiment in a line: Combination apoptosis induction (immunoblotting and/or Annexin-PI staining). The experiment is classed as cell-based. The settings on record: TNBC cell lines (FIGS. 15 and 16; ABT-263 data not shown). The protocol:
Immunoblotting and/or Annexin-PI staining confirmed that BM-1197 (250 nM), ABT-263 (250 nM), and A-1155463 (250 nM) potentiated Cpd. No. 4-induced apoptosis (50 nM) in MDA-MB-468 (FIG. 14) and other TNBC cell lines (data not shown). Synergistic induction of apoptosis by Cpd. […] No. 4-induced apoptosis in these cell lines. […] A with either BM-1197 (FIGS. 15 and 16) or ABT-263 (data not shown). […] No. 4 and BM-1197 was also detected in additional TNBC cell lines responsive to Cpd. No. 4-induced apoptosis (BT-20 and MDA-MB-157) (data not shown), further supporting that BCL-XL inhibitors potentiate Cpd. No. 4-induced apoptosis in TNBC.

In experiment [2] the test system is MDA-MB-231 xenograft. The experiment in a line: In vivo antitumor activity in MDA-MB-231 xenograft model (Example 25). Further details: species or system SCID mice. The protocol:
For the in vivo efficacy experiments of this example, when tumors reached 80-200 mm^3, SCID mice were randomized into groups. Cpd. A, Cpd. No. 4, Cpd. No. 6, or vehicle control (10% PEG400: 3% Cremophor: 87% PBS, or 2% TPGS:98% PEG200) was given at the dose and duration indicated. Tumor sizes and animal weights were measured 2-3 times per week. Tumor volume (mm^3)=(length×width^2)/2. Tumor growth inhibition was calculated as TGI (%)=(Vc−Vt)/(Vc−Vo)*100, where Vc, Vt are the median of control and treated groups at the end of the study and Vo at the start. All the in vivo studies were performed under an animal protocol approved by the University Committee on Use and Care of Animals of the University of Michigan, in accordance with the recommendations in the Guide for the Care and Use of Laboratory Animals of the National Institutes of Health.
No. 4 was determined in xenograft tumor models of TNBC cell lines.

For another experiment, the system named is AML-3. The experiment in a line: Cell growth inhibition (CellTiter-Glo), leukemia line AML-3. Particulars: AML3; AML-3 leukemia cell line. In kind it is cell-based. The protocol:
(§1) Cell growth inhibitory activity of representative BET bromodomain degraders in representative non-small cell lung cancer cell lines was determined using the CellTiter-Glo® Luminescent Cell Viability Assay. Cells were seeded in 384-well white opaque cell culture plates at a density of 2,000 cells/well with serially diluted compounds and incubated at 37° C. in an atmosphere of 95% air and 5% CO2 for 4 days. Cell viability was determined using the CellTiter-Glo® Luminescent Cell Viability Assay Kit (Promega, Madison, Wis.) according to the manufacture's instruction. Briefly, a volume of CellTiter-Glo® Reagent equal to the volume of cell culture medium was added to each well, and then the plates were incubated at room temperature for 10-20 minutes. The luminescent signal was measured using a Tecan Infinite M1000 multimode microplate reader (Tecan, Morrisville, N.C.). The half maximal inhibitory concentration (IC50) was calculated using the GraphPad Prism 5 software (GraphPad Software, La Jolla, Calif.). Cpd. A is a BET bromodomain inhibitor, see U.S. Appl. No. 62/121,637, having the following structure: Cell growth inhibitory activity of representative BET bromodomain degraders in representative leukemia cell lines, see Table 8, was determined as described in Example 17.
For orientation: Cellular ATP, detected with luciferase, serves as a proxy for viable cell number.

For a further experiment, the system named is SKML. The experiment in a line: Cell growth inhibition (CellTiter-Glo), leukemia line SKML. The experiment is classed as cell-based. The protocol:
as §1

In a further experiment the test system is AML-5. Put plainly: Cell growth inhibition (CellTiter-Glo), leukemia line AML-5. The experiment is classed as cell-based. Particulars: AML-5 leukemia cell line. The protocol:
as §1

In a further experiment the test system is MCL1 protein. Put plainly: PD analysis of MCL1 protein in WHIM24 tumors. In kind it is in vivo, mice. Particulars: at as early as 3 h after treatment (data not shown). The protocol: Cpd. […] A at 50 mg/kg, daily, oral dosing, 5 days a week for 3 weeks. Cpd. […] Neither Cpd. A nor Cpd. No. 4 caused significant weight loss (data not shown) or apparent toxicity in this model. […] No. 4 (10 mg/kg) reduced the levels of BET proteins by >80% at as early as 1 h and this effect lasted for at least 9 h in WHIM24 tumors (data not shown). […] No. 4 treatment (data not shown). […] No. 4 is reversible once the drug is cleared from the tumor tissue.

The subject of the next experiment is Mono-Mac6. The experiment in a line: Cell growth inhibition (CellTiter-Glo), leukemia line Mono-Mac6. The experiment is classed as cell-based. Particulars: Homo sapiens, MONO-MAC-6. The protocol: as §1
Experiment [3] has as its system TNBC cell lines. The experiment in a line: Apoptosis induction in TNBC cell lines. In kind it is cell-based. Particulars: triple-negative breast cancer (TNBC) cell lines (FIG. 12).
The test system of experiment [4] is MDA-MB-231 xenograft. The experiment in a line: Efficacy of Cpd. No. 9 in MDA-MB-231 xenograft model. The experiment is classed as in vivo, SCID mice. Particulars: MDA-MB-231 xenograft model in mice, i.v. (FIG. 7). The protocol: Cpd. No. 9 was dissolved in 10% PCP [10% PEG400 (Sigma)+3% Cremophor (Sigma)+87% PBS (Gibco)]. The pH of the drug solutions were checked before use and adjusted with 0.5N NaOH to be between pH 6.5 and 8.0 for IV (intravenous) administration.
Human breast tumor cells, MDA-MB-231 (ATCC®) were maintained at 37° C., 95% air, 5% carbon dioxide in Improved MEM (Richter's Mod.) supplemented with 10% Fetal Bovine Serum, 100 units/ml of penicillin and […] (GIBCO™, Invitrogen Corp.) and passaged twice weekly.
Tumor cells for xenografts were harvested with Trypsin (0.05%)-EDTA (0.53 mM) (GIBCO™, Invitrogen Corp.), growth medium added and cells placed on ice. Cells were washed once with 1×PBS (GIBCO™, Invitrogen Corp.) and re-suspended in PBS. After washing in PBS, cells were re-suspended in an ice cold mixture of 1:1 PBS and Matrigel (BD Biosciences, Invitrogen Corp.) for a final Matrigel protein concentration of 5 mg/ml. Cells at 5×10^6 cells in 0.1 ml were injected subcutaneously (s.c.) into the flank region of each mouse using a 25 gauge needle. […]
The size of tumors growing in the mice was measured in two dimensions using calipers. […] During treatment, tumor volume and body weight were measured three times a week. After the treatment was stopped, tumor volume and body weight was measured at least once a week. […]

Turning to `CCn1nc(C2CC2)cc1Nc1nc(COC)nc2[nH]c3cc(-c4c(C)noc4C)c(OC)cc3c12` [Cpd. A, reference compound], the “synergism with either BM-1197 or ABT-263” value in the experiment on TNBC cell lines [1] is “No clear synergism”.
The term IC50 denotes the concentration needed to halve the response being measured. As to `CCn1nc(C2CC2)cc1Nc1nc(C(=O)NCCCOCCOCCOCCCNc2cccc3c2C(=O)N(C2CCC(=O)NC2=O)C3=O)nc2[nH]c3cc(-c4c(C)noc4C)c(OC)cc3c12` (stereo not shown) [Cpd. No. 4], the antitumor activity result in the experiment on MDA-MB-231 xenograft [2] (MDA-MB-231 model, 10 mg/kg, IV, 3 times per week for 2-3 weeks (FIG. 10)) is on record as “limited or no antitumor activity”. Also, the tumor growth entry with MDA-MB-231 xenograft [2] (MDA-MB-231 xenograft model in mice (FIG. 10)) is “reduce tumor growth”. In addition, the IC50 with AML-3 came out at 0.4 µM; with SKML, 0.2 µM; in the experiment with AML-5, 0.5 µM; in the experiment on Mono-Mac6, 1.4 µM. Moreover, the “MCL1 protein levels in tumors” value with MCL1 protein is recorded as “markedly reduced”. Further, in the experiment with TNBC cell lines [3], the apoptosis induction entry was “induces stronger apoptosis than Cpd. A”.
As to `CCn1nc(C2CC2)cc1Nc1nc(C(=O)NCCCCNc2cccc3c2C(=O)N(C2CCC(=O)NC2=O)C3=O)nc2[nH]c3cc(-c4c(C)noc4C)c(OC)cc3c12` (stereo not shown) [Cpd. No. 9], the tumor growth entry with MDA-MB-231 xenograft [4] is “reduces tumor growth”.
